From patent publication US10087166B2, “Cyclic amine azaheterocyclic carboxamides” (Merck Patent GmbH, priority 2010, dated 2018) come the findings set out here.

This test deals with T1, P70S6K (Homo sapiens, UniProt P23443, T412E).
T1 construct: purchased Millipore
T1 sequence (P23443 whole entry T412E): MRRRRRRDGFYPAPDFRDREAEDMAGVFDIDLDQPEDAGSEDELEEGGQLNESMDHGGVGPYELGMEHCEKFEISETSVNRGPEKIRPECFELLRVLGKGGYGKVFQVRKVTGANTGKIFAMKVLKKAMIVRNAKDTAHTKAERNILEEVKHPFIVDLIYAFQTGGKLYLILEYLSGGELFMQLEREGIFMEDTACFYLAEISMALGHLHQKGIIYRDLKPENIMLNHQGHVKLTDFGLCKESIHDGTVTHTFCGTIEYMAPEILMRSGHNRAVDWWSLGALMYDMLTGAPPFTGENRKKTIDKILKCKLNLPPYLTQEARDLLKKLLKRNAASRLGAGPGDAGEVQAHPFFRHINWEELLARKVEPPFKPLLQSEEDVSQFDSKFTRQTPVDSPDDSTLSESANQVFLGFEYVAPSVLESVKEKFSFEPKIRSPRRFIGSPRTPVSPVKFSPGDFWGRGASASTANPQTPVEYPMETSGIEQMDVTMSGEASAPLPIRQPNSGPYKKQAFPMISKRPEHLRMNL
The experiment in a line: P70S6K enzyme assay. Type of test: biochemical. The conditions noted are these: P70S6K T412E mutant 3 nM, 24 μM ATP, FITC-AHA-AKRRRLSSLRA-OH substrate, 90 min at 25° C.; read-out: IC50p70S6K. On the procedure:
P70S6K inhibitor compounds are diluted and plated in 96 well plates. A reaction mixture including the following components is then added to the compound plate to initiate the enzyme reaction; P70S6K (3 nM, T412E mutant, Millipore) is mixed with 24 μM ATP in an assay buffer containing 100 mM Hepes (pH 7.5), 5 mM MgCl2, 1 mM DTT, 0.015% Brij and 1 μM of the substrate peptide FITC-AHA-AKRRRLSSLRA-OH (derived from the S6 ribosomal protein sequence, FITC=fluorescein isothiocyanate, AHA=6-aminohexanoic acid). The reaction is incubated for 90 min at 25° C., before the addition of 10 mM EDTA to stop the reaction. The proportion of substrate and product (phosphorylated) peptide is analyzed on a Caliper Life Sciences Lab Chip 3000, using a pressure of −1.4 psi, and upstream and downstream voltages of −3000 and −700 respectively. Product peaks are resolved before substrate peaks on the resulting chromatograms.
To assess the inhibitory potential of the compounds, IC50-values were determined, as shown in Chemical Synthesis section above.
For `NC(=O)c1cccc2c(N[C@@H]3CNC[C@H]3c3cccc(F)c3)ncnc12` [compound 67, 4-(((3S,4R)-4-(3-fluorophenyl)pyrrolidin-3-yl)amino)quinazoline-8-carboxamide], the IC50 was 0.00154 µM.

As for `NC(=O)c1cccc2c(N[C@H]3CNC[C@@H]3c3cccc(F)c3)ncnc12` [compound 68, 4-(((3R,4S)-4-(3-fluorophenyl)pyrrolidin-3-yl)amino)quinazoline-8-carboxamide], the IC50 stood at 0.048 µM.

As for `NC(=O)c1cccc2c(N[C@H]3CNC[C@@H]3c3ccc4ncccc4c3)ncnc12` [compound 70, 4-(((3R,4S)-4-(quinolin-6-yl)pyrrolidin-3-yl)amino)quinazoline-8-carboxamide], the IC50 stood at 0.0033 µM.

On to `NC(=O)c1cccc2c(N[C@@H]3CNC[C@H]3c3ccc4ncccc4c3)ncnc12` [compound 71, 4-(((3S,4R)-4-(quinolin-6-yl)pyrrolidin-3-yl)amino)quinazoline-8-carboxamide], for which the IC50 turned out to be 0.062 µM.

Consider `COc1cccc([C@H]2CNC[C@@H]2Nc2ncnc3c(C(N)=O)cccc23)c1` [compound 72, 4-(((3R,4S)-4-(3-methoxyphenyl)pyrrolidin-3-yl)amino)quinazoline-8-carboxamide], for which the IC50 came out at 0.36 µM.

Consider `COc1cccc([C@@H]2CNC[C@H]2Nc2ncnc3c(C(N)=O)cccc23)c1` [compound 73, 4-(((3S,4R)-4-(3-methoxyphenyl)pyrrolidin-3-yl)amino)quinazoline-8-carboxamide], for which the IC50 amounted to 0.0064 µM.

Consider `Cc1cc([C@H]2CNC[C@@H]2Nc2ncnc3c(C(N)=O)cccc23)ccc1F` [compound 75, 4-(((3R,4S)-4-(4-fluoro-3-methylphenyl)pyrrolidin-3-yl)amino)quinazoline-8-carboxamide], for which the IC50 was found to be 0.064 µM.

`Cc1cc([C@@H]2CNC[C@H]2Nc2ncnc3c(C(N)=O)cccc23)ccc1F` [compound 76, 4-(((3S,4R)-4-(4-fluoro-3-methylphenyl)pyrrolidin-3-yl)amino)quinazoline-8-carboxamide]: the IC50 turned out to be 0.0034 µM.

For the molecule `NC(=O)c1cccc2c(N[C@@H]3CNC[C@H]3c3cccc4ccccc34)ncnc12` [compound 79, 4-(((3S,4R)-4-(naphthalen-1-yl)pyrrolidin-3-yl)amino)quinazoline-8-carboxamide], the IC50 is 0.0012 µM.

As for `NC(=O)c1cccc2c(N[C@H]3CNC[C@@H]3c3ccc4ccccc4c3)ncnc12` [compound 80, 4-(((3R,4S)-4-(naphthalen-2-yl)pyrrolidin-3-yl)amino)quinazoline-8-carboxamide], the IC50 was 0.024 µM.

Consider `Cc1nc(N[C@H]2CNC[C@@H]2c2cccc(F)c2)c2cccc(C(N)=O)c2n1` [compound 83, 4-(((3R,4S)-4-(3-fluorophenyl)pyrrolidin-3-yl)amino)-2-methylquinazoline-8-carboxamide], for which the IC50 stood at 0.16 µM.

On to `Cc1nc(N[C@@H]2CNC[C@H]2c2cccc(F)c2)c2cccc(C(N)=O)c2n1` [compound 84, 4-(((3S,4R)-4-(3-fluorophenyl)pyrrolidin-3-yl)amino)-2-methylquinazoline-8-carboxamide], for which the IC50 came out at 0.0017 µM.

On to `N#Cc1cccc([C@H]2CNC[C@@H]2Nc2ncnc3c(C(N)=O)cccc23)c1` [compound 87, 4-(((3R,4S)-4-(3-cyanophenyl)pyrrolidin-3-yl)amino)quinazoline-8-carboxamide], for which the IC50 was found to be 0.081 µM.

Take `N#Cc1cccc([C@@H]2CNC[C@H]2Nc2ncnc3c(C(N)=O)cccc23)c1` [compound 88, 4-(((3S,4R)-4-(3-cyanophenyl)pyrrolidin-3-yl)amino)quinazoline-8-carboxamide]: the IC50 came out at 0.0024 µM.

For `NC(=O)c1cccc2c(N[C@H]3CNC[C@@H]3c3ccc4c(c3)CCO4)ncnc12` [compound 90, 4-(((3R,4S)-4-(2,3-dihydrobenzofuran-5-yl)pyrrolidin-3-yl)amino)quinazoline-8-carboxamide], the IC50 was 0.004 µM.

For `NC(=O)c1cccc2c(N[C@@H]3CNC[C@H]3c3ccc4c(c3)CCO4)ncnc12` [compound 91, 4-(((3S,4R)-4-(2,3-dihydrobenzofuran-5-yl)pyrrolidin-3-yl)amino)quinazoline-8-carboxamide], the IC50 was found to be 0.053 µM.

On to `Cc1c(F)cccc1[C@H]1CNC[C@@H]1Nc1ncnc2c(C(N)=O)cccc12` [compound 93, 4-(((3R,4S)-4-(3-fluoro-2-methylphenyl)pyrrolidin-3-yl)amino)quinazoline-8-carboxamide], for which the IC50 was determined as 0.0012 µM.

In the case of `Cc1c(F)cccc1[C@@H]1CNC[C@H]1Nc1ncnc2c(C(N)=O)cccc12` [compound 94, 4-(((3S,4R)-4-(3-fluoro-2-methylphenyl)pyrrolidin-3-yl)amino)quinazoline-8-carboxamide], the IC50 worked out at 0.052 µM.

Turning to `NC(=O)c1cccc2c(N[C@H]3CNC[C@@H]3c3cccc(Cl)c3)ncnc12` [compound 95, 4-(((3R,4S)-4-(3-chlorophenyl)pyrrolidin-3-yl)amino)quinazoline-8-carboxamide], the IC50 was 0.048 µM.

For `COc1ccc([C@@H]2CNC[C@H]2Nc2ncnc3c(C(N)=O)cccc23)cc1` [compound 96, 4-(((3S,4R)-4-(4-methoxyphenyl)pyrrolidin-3-yl)amino)quinazoline-8-carboxamide], the IC50 turned out to be 0.0041 µM.

Regarding `COc1ccc([C@H]2CNC[C@@H]2Nc2ncnc3c(C(N)=O)cccc23)cc1` [compound 97, 4-(((3R,4S)-4-(4-methoxyphenyl)pyrrolidin-3-yl)amino)quinazoline-8-carboxamide], the IC50 amounted to 0.081 µM.

In the case of `NC(=O)c1cccc2c(N[C@@H]3CNC[C@H]3c3ccc(Cl)c(F)c3)ncnc12` [compound 101, 4-(((3S,4R)-4-(4-chloro-3-fluorophenyl)pyrrolidin-3-yl)amino)quinazoline-8-carboxamide], the IC50 came to 0.0011 µM.

In the case of `NC(=O)c1cccc2c(N[C@@H]3CNC[C@H]3c3cc(F)c(F)cc3F)ncnc12` [compound 106, 4-(((3S,4R)-4-(2,4,5-trifluorophenyl)pyrrolidin-3-yl)amino)quinazoline-8-carboxamide], the IC50 was 0.0028 µM.

In the case of `NC(=O)c1cccc2c(N[C@H]3CNC[C@@H]3c3ccc(Cl)c(F)c3)ncnc12` [compound 112, 4-(((3R,4S)-4-(4-chloro-3-fluorophenyl)pyrrolidin-3-yl)amino)quinazoline-8-carboxamide], the IC50 worked out at 0.33 µM.

With `NC(=O)c1cccc2c(N[C@@H]3CNCC[C@H]3c3ccc(C(F)(F)F)cc3)ncnc12` [compound 128], the IC50 was 0.23 µM.

For `NC(=O)c1cccc2c(N[C@H]3CNCC[C@@H]3c3ccc(C(F)(F)F)cc3)ncnc12` [compound 129, 4-(((3R,4R)-4-(4-(trifluoromethyl)phenyl)piperidin-3-yl)amino)quinazoline-8-carboxamide], the IC50 is 0.0012 µM.

As to `NC(=O)c1cccc2c(N[C@H]3CNCC[C@@H]3c3cccc(C(F)(F)F)c3)ncnc12` [compound 130, 4-(((3R,4R)-4-(3-(trifluoromethyl)phenyl)piperidin-3-yl)amino)quinazoline-8-carboxamide], the IC50 was 0.0012 µM.

For `NC(=O)c1cccc2c(N[C@@H]3CNCC[C@H]3c3cccc(C(F)(F)F)c3)ncnc12` [compound 131, 4-(((3S,4S)-4-(3-(trifluoromethyl)phenyl)piperidin-3-yl)amino)quinazoline-8-carboxamide], the IC50 came to 0.16 µM.
